Key:
[1] = 303.15 K, 101.33 kPa, Liquid; for viscosity: Capillary tube (Ostwald / Ubbelohde) method; for mass density: Vibrating tube method
[2] = xn = mol fraction of the nth substance listed; conditions: 303.15 K, 101 kPa, Liquid; for viscosity: Capillary tube (Ostwald / Ubbelohde) method; for mass density: Vibrating tube method

CCCCO [butan-1-ol]
[1]
Conditions	mass density [kg/m3]	viscosity [mPa·s]
–	801.9	2.25

C1CCCCC1 [cyclohexane]
[1]
Conditions	mass density [kg/m3]	viscosity [mPa·s]
–	769.12	0.821

CCOC(C)=O [ethyl acetate]
[1]
Conditions	mass density [kg/m3]	viscosity [mPa·s]
–	888.5	0.4

CCOC(C)=O [ethyl acetate] + CCCCO
[2]
Conditions	mass density [kg/m3]	viscosity [mPa·s]
x2 = 0.1411	875.69	0.467
x2 = 0.3184	859.95	0.563
x2 = 0.3797	854.67	0.609
x2 = 0.4659	847.1	0.673
x2 = 0.5634	838.65	0.766
x2 = 0.6782	828.8	0.92
x2 = 0.7595	821.86	1.076
x2 = 0.8312	815.82	1.287
x2 = 0.9291	807.64	1.736

CCCCCCCCO [octan-1-ol]
[1]
Conditions	mass density [kg/m3]	viscosity [mPa·s]
–	817.52	6.19

CCCCCCCCO [octan-1-ol] + C1CCCCC1
[2]
Conditions	mass density [kg/m3]	viscosity [mPa·s]
x1 = 0.2008	780.75	1.242
x1 = 0.3755	789.9	1.792
x1 = 0.5205	796.98	2.4
x1 = 0.6054	800.89	2.847
x1 = 0.7044	805.34	3.46
x1 = 0.7758	808.38	3.983
x1 = 0.8541	811.63	4.633
x1 = 0.901	813.56	5.089
x1 = 0.9553	815.75	5.664

CCCCCCCCO [octan-1-ol] + CCOC(C)=O
[2]
Conditions	mass density [kg/m3]	viscosity [mPa·s]
x1 = 0.0809	878.16	0.537
x1 = 0.162	869.16	0.68
x1 = 0.3257	854.09	1.028
x1 = 0.4413	845.4	1.314
x1 = 0.5431	838.72	1.596
x1 = 0.6637	831.83	2.04
x1 = 0.7062	829.6	2.26
x1 = 0.8574	822.7	3.545
x1 = 0.9251	820.07	4.563

CCCCCO [pentan-1-ol]
[1]
Conditions	mass density [kg/m3]	viscosity [mPa·s]
–	807.11	2.839

CCCCCO [pentan-1-ol] + CCOC(C)=O
[2]
Conditions	mass density [kg/m3]	viscosity [mPa·s]
x1 = 0.1095	877.42	0.474
x1 = 0.2164	867.46	0.541
x1 = 0.3291	857.43	0.626
x1 = 0.4303	848.83	0.722
x1 = 0.5202	841.5	0.829
x1 = 0.6103	834.44	0.97
x1 = 0.7187	826.3	1.211
x1 = 0.8051	820.09	1.508
x1 = 0.9009	813.46	2.017

— the NIST ThermoML archive (doi:10.1016/j.tca.2009.02.022)
